Data set [1] concerns LPS-induced NO release in BV2 cells. The data set can be described thus: Inhibition of LPS-induced NO release in BV2 cells. The conditions noted are these: Mus musculus, BV-2. The class given is cell-based. The protocol:
(§1) The BV2 microglial cells were purchased from the China Center for Type Culture Collection, CCTCC (Wuhan, Hubei). BV2 microglia cells were incubated in DMEM media supplemented with 10% (v/v) FBS, 100 U/mL penicillin G and […] streptomycin at 37 °C with 5% CO2.
Nitrite, a stable product of nitric oxide, was used to assess NO production. To study the effects of the compounds on NO production, BV2 microglia cells in the logarithmic phase were plated at 1 × 10^5 cells/well in a 24-well microplate and incubated in DMEM medium (10% FBS) overnight. The cells were pretreated with various concentrations of the test compounds for 1 h and further co-cultured with 1 μg/mL LPS and 5% CO2 for 24 h in a 37 °C incubator; then, the supernatant was taken and stored at −20 °C for NO detection. The target compound and LPS were configured with DMEM medium (2% FBS). The determination of NO was carried out according to the instructions. Unpretreated and unstimulated BV2 microglia cells were conducted as the blank control group. The absorbance value was determined at 540 nm, and the corresponding NO content was calculated by using the standard curve. The NO inhibitory rate of the various concentrations of agents in BV2 cells was calculated as per the following formula:Inhibition rate (%) = (LPS(NO concentration) − sample(NO concentration))/(LPS(NO concentration) − negative control(NO concentration)) × 100%.

The subject of the next data set is TNF-α. The data set can be described thus: LPS-induced TNF-α release in BV2 cells (ELISA). Type of data set: cell-based, mouse. The conditions noted are these: 3 µM, 1 h pretreatment, LPS 1 μg/mL 24 h, vs. LPS alone. The protocol:
(§2) BV2 microglia cells were seeded at 1 × 10^5 cells/well in a 24-well microplate and incubated overnight. […] CU-19, CU-21 and LPS were configured with DMEM medium (2% FBS). According to the protocol of the manufacturer, supernatant was harvested at the 24th hour for the assay of IL-6, TNF-α and PGE-2 with ELISA kits (Absin Shanghai, China). Briefly, 100 μL of biotinylated antibody reagent and the culture supernatant were added to anti-mouse IL-6, TNF-α and PGE-2-precoated 96-well plates, and the plates were incubated for 2.5 h at room temperature. The plate was washed with a washing buffer and subsequently incubated with 100 μL of the streptavidin–HRP solution for 20 min at room temperature. The plate was washed and incubated with 100 μL of TMB substrate solution for 20 min at room temperature in the dark. The reaction was stopped by adding 50 μL of stop solution, and then the absorbance was measured at 450 nm by a plate reader. The average value was substituted into the standard curve to obtain the […] concentration.

A short description of data set [2]: MTT cell viability assay in BV2 microglia cells. The conditions noted are these: mouse, mean ± SD, n = 3. Type of data set: cell-based. As to the method:
as §1
Cell viability assays were evaluated using a 3-(4,5-dimethylthiazol-2-yl)-2,5-diphenyltetrazolium bromide (MTT) assay. BV2 microglia cells were seeded in 96-well plates at a density of 1.6 × 10^5 cells/well in complete medium and incubated for 24 h. Then, the culture medium was sucked and discarded, and sterile PBS was added for washing, and then PBS was removed. Then the cells were treated with different concentrations of target compounds for 24 h. An amount equal to 100 μL of MTT was added to each well and the cells were further incubated for 2–4 h. An amount equal to 150 μL of DMSO was added into a 96-well plate and vibrated with micro-oscillator for 10 min. The optical density (A) was measured at […] on a microplate reader. The inhibitory rate of the various concentrations of agents in BV2 cells was calculated using the following formula:Cell viability (%) = [A492 (sample) − A492 (blank)]/[A492 (control) − A492 (blank)] × 100%

The next data set deals with IL-6. The data set can be described thus: LPS-induced IL-6 release in BV2 cells (ELISA). The class given is cell-based, mouse. The conditions noted are these: 3 µM, 1 h pretreatment, LPS 1 μg/mL 24 h, vs. LPS alone. The protocol: as §2
Background: In an ELISA, binding on a coated surface is turned into a signal by an enzyme label.

In another data set the test system is iNOS. The data set can be described thus: LPS-induced iNOS expression in BV2 cells (Western blot). The conditions noted are these: 3 μM, 1 h pretreatment, LPS 1 μg/mL 24 h. Type of data set: cell-based. The protocol: (§3) CU-19, CU-21 and LPS were configured with DMEM medium (2% FBS). The cells were collected and washed three times with ice-cold PBS. The lysate (containing 1% protease inhibitor and phosphatase inhibitor) was added to the collected cells for suspension, and the cells were lysed by ultrasonic crusher. Then the cell lysates were centrifuged (14,000 rpm, 10 min, 4 °C) […] and collect the supernatant. Aliquots of the lysates were separated on 10% sodium dodecyl sulphate (SDS)-polyacrylamide gel electrophoresis (PAGE) and then electro blotted onto a polyvinylidene difluoride (PVDF) membrane. The blots were blocked with 5% (w/v) nonfat dry milk for 2 h at room temperature, followed by incubation with specific primary antibodies at 4 °C overnight. Blots were washed with PBST and incubated with secondary antibody for 2 h, after which an ECL reagent was used for chemiluminescent detection.

Another data set relates to PGE-2. The data set can be described thus: LPS-induced PGE-2 release in BV2 cells (ELISA). Type of data set: cell-based, mouse. The conditions noted are these: 3 µM, 1 h pretreatment, LPS 1 μg/mL 24 h, vs. LPS alone. As to the method:
as §2

For another data set, the system named is ERK. The data set can be described thus: LPS-induced ERK phosphorylation in BV2 cells (Western blot). The class given is cell-based. The conditions noted are these: 3 μM, 1 h pretreatment, LPS 1 μg/mL 24 h. The protocol: as §3
(In general: In western blotting, separated proteins are transferred to a membrane and probed.)

Another data set has as its system JNK. The data set is described as follows: LPS-induced JNK phosphorylation in BV2 cells (Western blot). The conditions noted are these: 3 μM, 1 h pretreatment, LPS 1 μg/mL 24 h. The class given is cell-based. The protocol: as §3
In the next data set the test system is p38. The data set is described as follows: LPS-induced p38 phosphorylation in BV2 cells (Western blot). The conditions noted are these: 3 μM, 1 h pretreatment, LPS 1 μg/mL 24 h. Type of data set: cell-based. The protocol: as §3
The nature of data set [3]: In vivo pharmacokinetic study in rats. Also on record: species or system Sprague–Dawley male rats. The protocol:
After a single intravenous dose of 20 mg/kg, 0.5 mL of blood was obtained from the fossa orbitalis veniplex of rats at 5, 10, 20, 30, 45, 60, 120, 180 and 240 min. HPLC was used to determine the concentration of each compound in plasma and the DAS software was used for the noncompartmental pharmacokinetic analysis of the plasma concentration–time data.
Sprague–Dawley male rats, 200–240 g, were housed in cages in an airconditioned room with light dark cycle of 12 h before the experiment started. The animals were fasted for 12 h with water ad libitum. […] The administration volume was 6 mL per kg of body weight. The compounds were dissolved in PEG400 (10% of the administration volume) and water (90% of the administration volume) and sonicated for 30 min. After tail vein injection administration at a dose of 20 mg/kg, 0.5 mL blood was obtained from fossa orbitalis veniplex of rats at 5, 10, 20, 30, 45, 60, 120, 180 and 240 min. Whole blood samples were collected in heparinized tubes and the plasma was immediately centrifuged (10,000 rpm, 10 min, 4 °C) and then stored at −20 °C until analysis. The calibration standards and the plasma samples were extracted by protein precipitation using methanol.

The next data set has as its system COX-2. The data set is described as follows: LPS-induced COX-2 expression in BV2 cells (Western blot). Type of data set: cell-based. The conditions noted are these: 3 μM, 1 h pretreatment, LPS 1 μg/mL 24 h. The protocol: as §3
Another data set deals with NF-κB. The data set is described as follows: LPS-induced NF-κB nuclear translocation in BV2 cells (immunofluorescence). The class given is cell-based. The conditions noted are these: 3 μM with LPS, 24 h. The protocol:
CU-19, CU-21 and LPS were configured with DMEM medium (2% FBS). After 24 h of treatment, cells were fixed with 4% paraformaldehyde for 18 min and washed three times with PBS (5 min per wash). The fixed cells were then permeabilized in […] for 15 min and washed three times with PBS (5 min per wash). Nonspecific binding sites were blocked with 5% goat serum for 30 min. These cells were then incubated with anti-NF-κB antibody at a dilution of 1:400 overnight at 4 °C. After washing with PBS three times, cells were incubated with fluorescent-conjugated secondary antibody (1:150) for 1 h, and counterstained with DAPI (1:50) at room temperature for 15 min in the dark. Cells were then washed and imaged via confocal microscopy.

The mark [4] stands for this setting: male, Sprague-Dawley, rat plasma, single intravenous dose 20 mg/kg, mean ± SD, n = 4.

For the molecule `COc1ccc(CC/C=C/C(=O)/C=C/c2ccccc2)cc1` [CU-21, (1E,4E)-7-(4-methoxyphenyl)-1-phenyl-1,4-heptadien-3-one], the melting point (in general, the temperature, or range, at which the solid turns liquid) is 58 to 60 °C. Also, the inhibition (commonly the percentage by which the read-out fell short of the control) at 3 µM in [1] (3 µM, pretreated 1 h, then LPS 1 μg/mL for 24 h, BV2 cells) is 66.1%. Besides, the IC50 (in general, the concentration that gives 50% inhibition) in data set [1] (BV2 cells, 0.3, 1.0, 3.0 μM, LPS 1 μg/mL 24 h, mean ± SD, n = 3, read-out: IC50 to inhibit LPS-induced NO release) worked out at 1740 ± 660 nM. In addition, the “Inhibition of LPS-induced TNF-α release” value in the data set with TNF-α is listed as “significantly inhibited”. In data set [2] (1 µM), the viability (commonly a per cent measure of how many cells are alive, often set against a control) at 24 h, 1 µM amounted to 96.94 ± 0.01%. Moreover, in [2] (3 µM), the viability at 24 h, 3 µM stood at 94.55 ± 0.09%. This molecule also displayed a viability at 24 h, 10 µM in [2] (10 µM) of 77.89 ± 0.5%. For the same molecule, the “Inhibition of LPS-induced IL-6 release” value in the data set with IL-6 was “significantly inhibited”. In addition, the “Inhibition of LPS-induced iNOS expression” value with iNOS is “significantly inhibited”. Also, the “Inhibition of LPS-induced PGE-2 release” value in the data set with PGE-2 is listed as “significantly inhibited”. The “ERK phosphorylation compared to the LPS group” value in the data set on ERK is given as “significantly decreased”. The “JNK phosphorylation compared to the LPS group” value in the data set with JNK was “significantly decreased”. In addition, the “p38 phosphorylation compared to the LPS group” value in the data set with p38 was “significantly decreased”. Also, in [3] (setting [4]), the total exposure AUC(0-inf) (commonly the area under the concentration-time curve extrapolated to infinity) was 3530 ng·h/mL; the area under the curve AUC(0-t) (commonly exposure summed from dosing to a finite time, without extrapolation to infinity) is 2830 ng·h/mL; the peak level (Cmax) was 6850 ± 634 ng/mL; the half-life (as a rule, the time in which the quantity being followed falls by half) came out at 2.72 ± 0.613 h. Further, the MRT last in data set [3] (male, Sprague-Dawley, rat plasma, single intravenous dose 20 mg/kg, mean ± SD, n = 4, read-out: MRT (0-t) (converted)) is 0.757 h. Moreover, in data set [3] (male, Sprague-Dawley, rat plasma, single intravenous dose 20 mg/kg, mean ± SD, n = 4, read-out: MRT (0-∞) (converted)), the MRT inf was 2.32 h. Further, in data set [3] (rat plasma after intravenous 20 mg/kg, chromatograms at 5, 10, 20 min (Figures S1–S9)), the “Metabolites detected in plasma by HPLC” value is “no obvious metabolites”. Besides, the “Increase of T1/2 in comparison with that of CU” value in data set [3] (rat, single intravenous dose 20 mg/kg) is 5.5 fold. Also, the “Inhibition of LPS-induced COX-2 expression” value in the data set on COX-2 was “significantly inhibited”. Also, the “Inhibition of LPS-induced NF-κB nuclear translocation” value in the data set on NF-κB was “able to inhibit NF-κB nuclear translocation”.

The values are drawn from article PMC9181915, “Synthesis and Anti-Neuroinflammatory Activity of 1,7-diphenyl-1,4-heptadien-3-ones in LPS-Stimulated BV2 Microglia Via Inhibiting NF-κB/MAPK Signaling Pathways” (Molecules, 2022).
